Source: US20100130493A1, “COMBINATION OF VEGF RECEPTOR TYROSINE KINASE INHIBITORS FOR TREATMENT OF CANCER” (priority 2002, published 2010)

What was measured:
[1] = tested on: human A431 vulval carcinoma tumour xenografts; assay: Human A431 vulval carcinoma tumour xenografts in nude mice; conditions: A431 xenograft; for Number of tumours regressing after 31 days of treatment (treatment from day 28 to day 59): tumour volume at day 59 smaller than pre-treatment value on day 28, regressing/total
Method: 5×10^6 A431 tumour cells in 0.1 ml of serum free Dulbecco's Modified Eagle's Medium (DMEM) were injected subcutaneously (s.c.) into the flank of each athymic (nu/nu genotype) mouse. Eleven days after inoculation tumours were excised and dissected to generate cubic tumour fragments of 0.5-1 mm^3, which were implanted into further nude mice for a therapy experiment. Tumour volumes were assessed by bilateral Vernier caliper measurement and, taking length to be the longest diameter across the tumour and width the corresponding perpendicular, calculated using the formula (length×width)×the square root of (length×width)×(π/6). […] In addition, the number of tumour regressions following 31 days of treatment was ascertained (tumour regression being evident if the tumour volume at day 59 was smaller than the pre-treatment value on day 28).

[2] = tested on: human LoVo colon tumour xenografts; assay: Human LoVo colon tumour xenografts in nude mice; conditions: LoVo xenograft, p.o. daily days 0-14, ZD6474 6 mg/kg/day, ZD1839 50 mg/kg/day, or combination, versus control
Method: 10^7 LoVo tumour cells in 0.1 ml of serum free Dulbecco's Modified Eagle's Medium (DMEM) were injected subcutaneously (s.c.) into the flank of each athymic (nu/nu genotype) mouse. Tumor volumes were assessed by bilateral Vernier caliper measurement and, taking length to be the longest diameter across the tumor and width the corresponding perpendicular, calculated using the formula (length×width)×the square root of (length×width)×(π/6). […] A one-tailed two-sample t-test was used to evaluate the significance of tumour growth inhibition.

Compound: COc1cc2ncnc(Nc3ccc(F)c(Cl)c3)c2cc1OCCCN1CCOCC1 [ZD1839, N-(3-chloro-4-fluorophenyl)-7-methoxy-6-(3-morpholinopropoxy)quinazolin-4-amine, reference compound]
- Number of tumours regressing after 31 days of treatment (treatment from day 28 to day 59) [1]: 3/9

Compound: COc1cc2c(Nc3ccc(Br)cc3F)ncnc2cc1OCC1CCN(C)CC1 [ZD6474, 4-(4-bromo-2-fluoroanilino)-6-methoxy-7-(1-methylpiperidin-4-ylmethoxy)quinazoline]
- % Inhibition of Tumour Growth at Day 14 [2]: 38%
- Mean % Inhibition of tumour growth following 21 days of treatment (treatment from day 28 to day 49) ([1]; nude mice, p.o., ZD6474 50 mg/kg/day, ZD1839 50 mg/kg/day, or combination, assessed day 49 versus control): 116% (P < 0.001)
- % tumour regression following 21 days of treatment (day 28 to day 49) ([1]; restatement of inhibition above 100% as regression, day 49): (i.e. 16% tumour regression)
- Number of tumours regressing after 31 days of treatment (treatment from day 28 to day 59) [1]: 6/9
